Experimental data published in paper PMC7246765, “Development of a Radiofluorinated Adenosine A2B Receptor Antagonist as Potential Ligand for PET Imaging” (International Journal of Molecular Sciences, 2020).
Where two headings read alike, the source gives them in different places.

Legend:
[1] = molecular target: T1, human adenosine A2A receptor (Homo sapiens, UniProt P29274); experiment: Competitive radioligand binding with [3H]MSX-2, membranes of CHO or HEK cells; conditions: for Selectivity Ratio Ki(Ax)/Ki(A2B): A2A/A2B: ratio of Ki values
T1 construct: host or cells: CHO or HEK cells
T1 sequence (P29274 whole entry): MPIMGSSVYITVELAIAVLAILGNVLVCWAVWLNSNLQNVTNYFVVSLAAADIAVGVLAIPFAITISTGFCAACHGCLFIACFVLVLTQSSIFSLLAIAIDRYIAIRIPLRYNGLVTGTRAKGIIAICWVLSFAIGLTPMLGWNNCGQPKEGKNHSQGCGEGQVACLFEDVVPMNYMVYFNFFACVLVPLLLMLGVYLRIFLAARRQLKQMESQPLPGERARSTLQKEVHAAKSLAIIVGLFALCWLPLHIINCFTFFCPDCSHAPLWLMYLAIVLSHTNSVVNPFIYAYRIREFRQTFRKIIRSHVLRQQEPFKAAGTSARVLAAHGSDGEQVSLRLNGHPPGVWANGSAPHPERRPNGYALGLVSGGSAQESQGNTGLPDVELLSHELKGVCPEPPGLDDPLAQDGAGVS
Description: (§1) The binding affinities of 2 and 9 at the four human adenosine receptor subtypes A2B, A2A, A1, and A3, presented in Table 1, were determined in competitive binding assays using appropriate radioligands and membrane preparations of Chinese hamster ovary (CHO) cells or human embryonic kidney (HEK) cells, respectively, recombinantly expressing the corresponding human receptor subtype.
(§2) Membrane preparations of recombinant CHO or HEK (human embryonic kidney) cells expressing the respective human adenosine receptor subtype were obtained according to Borrman et al. or purchased from Perkin Elmer, Germany. Radioligand binding assays using human A1, A2A, A2B and A3 receptors were performed according to Alnouri et al..
[^3H]3-(3-hydroxypropyl)-7-methyl-8-(m-methoxystyryl)-1-propargylxanthine, ([^3H]MSX-2, molar activity: 84 Ci/mmol, 1 nM [29]) for the A2A receptor,
(§3) [^3H](R)-8-ethyl-4-methyl-2-(phenyl)1,4,7,8-tetrahydro-5H-imidazo[2,1-i]purin-5-one ([^3H]PSB-11, molar activity: 53 Ci/mmol, 1 nM [30]) for the A3 receptor. Three separate experiments were performed to determine the Ki values. All data were analyzed with GraphPad Prism, Version 4.1 (GraphPad Inc., La Jolla, CA,USA).

[2] = molecular target: T2, human adenosine A1 receptor (Homo sapiens, UniProt P30542); experiment: Competitive radioligand binding with [3H]CCPA, membranes of CHO or HEK cells; conditions: for Selectivity Ratio Ki(Ax)/Ki(A2B): A1/A2B: ratio of Ki values
T2 construct: host or cells: CHO or HEK cells
T2 sequence (P30542 1-326): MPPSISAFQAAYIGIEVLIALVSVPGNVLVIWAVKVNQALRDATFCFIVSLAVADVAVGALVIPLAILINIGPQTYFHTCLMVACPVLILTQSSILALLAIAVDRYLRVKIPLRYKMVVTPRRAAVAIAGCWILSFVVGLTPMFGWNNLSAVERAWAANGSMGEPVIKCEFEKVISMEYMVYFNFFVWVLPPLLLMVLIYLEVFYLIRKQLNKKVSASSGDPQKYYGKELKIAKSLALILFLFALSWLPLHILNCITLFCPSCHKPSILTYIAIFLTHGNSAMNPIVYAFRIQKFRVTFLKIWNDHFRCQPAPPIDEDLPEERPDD
Description: as §1, §2
[^3H]2-Chloro-N^6cyclopentyladenosine ([^3H]CCPA, molar activity: 58 Ci/mmol, 1 nM [28]) for the A1 receptor,
as §3

[3] = molecular target: T3, human adenosine A3 receptor (Homo sapiens, UniProt P0DMS8); experiment: Competitive radioligand binding with [3H]PSB-11, membranes of CHO or HEK cells; conditions: for Selectivity Ratio Ki(Ax)/Ki(A2B): A3/A2B: ratio of Ki values
T3 construct: host or cells: CHO or HEK cells
T3 sequence (P0DMS8 1-318): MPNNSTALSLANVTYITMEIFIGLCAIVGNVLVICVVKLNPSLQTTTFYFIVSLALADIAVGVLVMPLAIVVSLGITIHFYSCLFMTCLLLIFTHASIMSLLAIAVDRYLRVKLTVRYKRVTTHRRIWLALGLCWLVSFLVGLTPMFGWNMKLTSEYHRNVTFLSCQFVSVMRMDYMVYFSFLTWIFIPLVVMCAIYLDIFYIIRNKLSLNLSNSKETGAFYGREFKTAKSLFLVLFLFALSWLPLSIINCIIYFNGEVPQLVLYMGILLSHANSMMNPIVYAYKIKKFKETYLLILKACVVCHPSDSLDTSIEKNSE
Description: as §1, §2, §3

[4] = molecular target: T4, human adenosine A2B receptor (Homo sapiens, UniProt P29275); conditions: cited from earlier work
T4 construct: host or cells: CHO or HEK cells
T4 sequence (P29275 1-332): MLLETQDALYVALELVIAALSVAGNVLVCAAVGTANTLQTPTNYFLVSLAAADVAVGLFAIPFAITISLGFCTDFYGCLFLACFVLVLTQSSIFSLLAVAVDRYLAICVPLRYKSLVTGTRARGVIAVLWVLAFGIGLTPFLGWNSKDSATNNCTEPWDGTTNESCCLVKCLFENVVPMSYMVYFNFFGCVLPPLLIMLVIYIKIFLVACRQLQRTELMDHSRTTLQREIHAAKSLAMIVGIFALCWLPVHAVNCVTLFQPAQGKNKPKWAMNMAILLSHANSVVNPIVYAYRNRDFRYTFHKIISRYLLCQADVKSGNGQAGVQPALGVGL

[5] = molecular target: T1, human adenosine A2A receptor; conditions: cited from earlier work
[6] = molecular target: T2, human adenosine A1 receptor; conditions: cited from earlier work
[7] = molecular target: T3, human adenosine A3 receptor; conditions: cited from earlier work
[8] = molecular target: T4, human adenosine A2B receptor; experiment: Competitive radioligand binding with [3H]PSB-603, membranes of CHO or HEK cells; conditions: mean ± SEM of three independent assays
Description: as §1, §2
[^3H]8-(4-[4-(4-chlorophenyl)piperazine-1-sulfonyl]phenyl)-1-propyl-2,3,6,7-tetrahydro-1H-purine-2,6-dione ([^3H]PSB-603, molar activity: 73Ci/mmol, 0.3 nM [26]) for the A2B receptor, and
as §3

[9] = parameters: method as in PMID 20138516; conditions: in vitro, rat hepatic microsomes; cited from earlier work

Row | Selectivity Ratio Ki(Ax)/Ki(A2B): A2A/A2B [1] | Selectivity Ratio Ki(Ax)/Ki(A2B): A1/A2B [2] | Selectivity Ratio Ki(Ax)/Ki(A2B): A3/A2B [3] | Ki [8] [nM] | Ki ([1]; [3H]MSX-2, mean ± SEM of three independent assays) [nM] | Ki ([2]; [3H]CCPA, mean ± SEM of three independent assays) [nM] | Ki ([3]; [3H]PSB-11, mean ± SEM of three independent assays) [nM] | Compound | Ki [4] [nM] | Ki [5] [nM] | Ki [6] [nM] | Ki [7] [nM] | metabolic stability [9]
1 | 13 | 4.5 | 188 | – | – | – | – | O=C(Nc1cnc(-c2ccnc(F)c2)c(-c2ccccc2F)n1)C1CC1 [Compound 1] | 4.24 ± 0.04 | 55 ± 6.1 | 19 ± 5.2 | 796 ± 26 | –
2 | 39 | > 400 | > 400 | 2.51 ± 1.1 | 98.8 ± 28.3 | > 1000 | > 1000 | O=c1[nH]c(=O)c2cc(-c3ccncn3)c(-c3ccco3)nc2[nH]1 [Compound 2, 7-(Furan-2-yl)-6-(pyrimidin-4-yl)pyrido[2,3-d]pyrimidine-2,4-(1H,3H)-dione] | – | – | – | – | high metabolic stability
